Assay results published in BigSolDB 2.1.

O=C(O)c1ccc(-c2ccccc2)cc1
solubility (mole fraction)
Details | in benzene | in ethanol | in ethyl acetate | in isobutanol | in isopropanol | in methanol | in methyl acetate | in n-butanol | in n-propanol
293.15 K | 0.00101 | 0.00366 | 0.00654 | 0.00276 | 0.0039 | 0.00255 | 0.0051 | 0.00471 | 0.00426
298.15 K | 0.00123 | 0.00436 | 0.00802 | 0.00349 | 0.00464 | 0.00304 | 0.00593 | 0.00559 | 0.00509
303.15 K | 0.00149 | 0.00512 | 0.00923 | 0.00418 | 0.00563 | 0.0036 | 0.00704 | 0.00658 | 0.00598
308.15 K | 0.00179 | 0.00606 | 0.0108 | 0.0051 | 0.00653 | 0.00424 | 0.00815 | 0.00775 | 0.00685
313.15 K | 0.00214 | 0.0072 | 0.0124 | 0.0063 | 0.00779 | 0.00484 | 0.00942 | 0.00897 | 0.00817
318.15 K | 0.00254 | 0.00831 | 0.0143 | 0.00781 | 0.00952 | 0.00584 | 0.0108 | 0.0105 | 0.00954
323.15 K | 0.003 | 0.00962 | 0.0165 | 0.0093 | 0.0115 | 0.0066 | 0.0126 | 0.012 | 0.0112
328.15 K | 0.00353 | 0.0109 | 0.019 | 0.0111 | 0.0134 | 0.0076 | 0.0145 | 0.0138 | 0.0132
